For seven compounds, IC50 results are on record in BindingDB's records for patent US20260042753 (Merck Patent, 2026).

For the experiment, the system named is Mast/stem cell growth factor receptor Kit [V654A]. Nature of the experiment: c-Kit(V654A) Assay. Here is the method: c-Kit(V654A) (N-terminal GST-tagged, recombinant human c-Kit, amino acids 544-end containing the V654A mutation) is incubated with 8 mM MOPS pH 7.0, 0.2 mM EDTA, 250 μM GGMEDIYEFMGGKKK, 10 mM MgAcetate and [gamma-33P-ATP](specific activity approx. 500 cpm/pmol, concentration 200 μM). The reaction is initiated by the addition of the MgATP mix. After incubation for 40 minutes at room temperature, the reaction is stopped by the addition of 3% phosphoric acid solution. 10 μL of the reaction is then spotted onto a P30 filtermat and washed three times for 5 minutes in 75 mM phosphoric acid and once in methanol prior to drying and scintillation counting.

In general, IC50 refers to the concentration that inhibits the measured activity by half. Higher therefore signals weaker potency. For `COCCOc1cc2[nH]nc(-c3cc(-c4ccc(N5CC[C@H]6[C@H]5CCN6C)cc4)no3)c2cc1F` (relative stereo) [US20260042753, Compound A126], the midpoint of inhibition, the IC50, lay at 1.7 nM.
As for `COCCOc1cc2[nH]nc(-c3cc(-c4ccc(C(=O)N5C[C@@H]6CC(=O)N[C@@H]6C5)cc4)no3)c2cc1F` (relative stereo) [US20260042753, Compound A203], the figure is 1.4 nM.
As for `COCCNC(=O)c1ccc(-c2cc(-c3n[nH]c4cc(C(=O)NCCOC)ccc34)on2)cc1` [US20260042753, Compound A23], the figure is 10 nM; as for `COCCOc1cc2[nH]nc(-c3cc(-c4ccc(C(=O)N5C[C@H]6CCOC[C@H]6C5)cc4)no3)c2cc1F` (relative stereo) [US20260042753, Compound A214], 0.44 nM.
As for `COCCOc1cc2[nH]nc(-c3cc(-c4ccc(C(=O)N5CC[C@@H]6CNC(=O)[C@@H]65)cc4)no3)c2cc1F` (relative stereo) [US20260042753, Compound A89], the IC50 amounted to 0.57 nM. This IC50 and that of the compound before are within 1.5-fold of each other.
In the case of `COCCOc1cc2[nH]nc(-c3cc(-c4ccc(C(=O)N5CC[C@H]6COC[C@H]6C5)cc4)no3)c2cc1F` (relative stereo) [US20260042753, Compound A215] it was 0.76 nM; in that of `COCCOc1cc2[nH]nc(-c3cc(-c4ccc([SH2+]([O-])C=N)cc4)no3)c2cc1F` [US20260042753, Compound A226], 2 nM.
